system: BMP signal in MDA-231-D-BREFluc/Rluc cells; assay: BMP signal inhibitory effect (AlphaScreen SureFire SMAD1 p-Ser463/465, BMP-6 stimulation); assay type: cell-based; conditions: not given
Summary of the method: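 Read-out was phospho-SMAD1 (Ser463/465) by AlphaScreen SureFire after 30 min BMP-6 stimulation at 37° C. Before stimulation, MDA-231-D-BREFluc/Rluc cells were incubated with test compound at 37° C for 2 h.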

| SMILES | IC50 [nM] |
| --- | --- |
| CCn1cc(-c2ccnc(Nc3ccc(C(=O)N4CC5CCC(C4)N5C)cc3)n2)c(-c2cccnc2)n1 [Example 117, (4-((4-(1-Ethyl-3-(pyridin-3-yl)-1H-pyrazol-4-yl)pyrimidin-2-yl)amino)phenyl) (8-methyl-3,8-diazabicyclo [3.2.1]octan-3-yl)methanone] | 12 |
| CCn1cc(-c2ccnc(Nc3ccc(C(=O)N4CC5CCC(C4)N5C4CCCC4)cc3)n2)c(-c2cccnc2)n1 [Example 118, (8-Cyclopentyl-3,8-diazabicyclo [3.2.1]octan-3-yl) (4-((4-(1-ethyl-3-(pyridin-3-yl)-1H-pyrazol-4-yl)pyrimidin-2-yl)amino)phenyl) methanone] | 8.6 |
| CCn1cc(-c2ccnc(Nc3ccc(OC4CC5CCC(C4)N5)cc3)n2)c(-c2cccnc2)n1 (stereo not drawn) [Example 146, N-(4-((8-Azabicyclo[3.2.1]octan-3-yl)oxy)phenyl)-4-(1-ethyl-3-(pyridin-3-yl)-1H-pyrazol-4-yl)pyrimidin-2-amine] | 13.5 |

same assay, conditions: BMP-6 stimulated MDA-231-D-BREFluc/Rluc cells, phospho-SMAD1 AlphaScreen; read-out: IC50

| IC50 [nM] | SMILES |
| --- | --- |
| 13.3 | CCn1cc(-c2ccnc(Nc3ccc(OC4CN(CC(C)(C)O)C4)cc3)n2)c(-c2cccnc2)n1 [Example 108, 1-(3-(4-((4-(1-Ethyl-3-(pyridin-3-yl)-1H-pyrazol-4-yl)pyrimidin-2-yl)amino)phenoxy)azetidin-1-yl)-2-methylpropan-2-ol] |
| 5.7 | CCn1cc(-c2ccnc(Nc3ccc4c(c3)CCN(CC(O)COC)C4)n2)c(-c2cccnc2)n1 (stereo not drawn) [Example 109, 1-(6-((4-(1-Ethyl-3-(pyridin-3-yl)-1H-pyrazol-4-yl)pyrimidin-2-yl)amino)-3,4-dihydroisoquinolin-2 (1H)-yl)-3-methoxypropan-2-ol] |
| 32.8 | COCC(O)CN1CCN(c2ccc(Nc3nccc(-c4cn(C5COC5)nc4-c4cccnc4)n3)cc2)CC1 (stereo not drawn) [Example 110, 1-Methoxy-3-(4-(4-((4-(1-(oxetan-3-yl)-3-(pyridin-3-yl)-1H-pyrazol-4-yl)pyrimidin-2-yl)amino)phenyl)piperazin-1-yl)propan-2-ol] |
| 27.3 | COCC(O)CN1CCN(c2ccc(Nc3nccc(-c4cn(CC(C)(C)O)nc4-c4cccnc4)n3)cc2)CC1 (stereo not drawn) [Example 111, 1-(4-(2-((4-(4-(2-Hydroxy-3-methoxypropyl)piperazin-1-yl)phenyl)amino)pyrimidin-4-yl)-3-(pyridin-3-yl)-1H-pyrazol-1-yl)-2-methylpropan-2-ol] |
| 11.7 | CCn1cc(-c2ccnc(Nc3ccc(CCN4CCN(C)CC4)cc3)n2)c(-c2cccnc2)n1 [Example 112, 4-(1-ethyl-3-(pyridin-3-yl)-1H-pyrazol-4-yl)-N-(4-(2-(4-methylpiperazin-1-yl)ethyl)phenyl)pyrimidin-2-amine] |
| 8 | CCn1cc(-c2ccnc(Nc3ccc(C4CCCN(C)C4)cc3)n2)c(-c2cccnc2)n1 (stereo not drawn) [Example 113, 4-(1-Ethyl-3-(pyridin-3-yl)-1H-pyrazol-4-yl)-N-(4-(1-methylpiperidin-3-yl)phenyl)pyrimidin-2-amine] |
| 0.9 | CCn1cc(-c2ccnc(Nc3cccc(C4CCN(C)CC4)c3)n2)c(-c2cccnc2)n1 [Example 114, 4-(1-Ethyl-3-(pyridin-3-yl)-1H-pyrazol-4-yl)-N-(3-(1-methylpiperidin-4-yl)phenyl)pyrimidin-2-amine] |
| 1.1 | CCn1cc(-c2ccnc(Nc3ccc4c(c3)CCN(C)CC4)n2)c(-c2cccnc2)n1 [Example 115, N-(4-(1-Ethyl-3-(pyridin-3-yl)-1H-pyrazol-4-yl)pyrimidin-2-yl)-3-methyl-2,3,4,5-tetrahydro-1H-benzo [d] azepin-7-amine] |
| 15.1 | CCn1cc(-c2ccnc(Nc3ccc(C(=O)N4CCN(C)CC4)cc3)n2)c(-c2cccnc2)n1 [Example 116, (4-((4-(1-Ethyl-3-(pyridin-3-yl)-1H-pyrazol-4-yl)pyrimidin-2-yl)amino)phenyl)(4-methylpiperazin-1-yl)methanone] |
| 5 | CCn1cc(-c2ccnc(Nc3ccc(C(=O)N4CCN(C(C)C)CC4)cc3)n2)c(-c2cccnc2)n1 [Example 119, (4-((4-(1-Ethyl-3-(pyridin-3-yl)-1H-pyrazol-4-yl)pyrimidin-2-yl)amino)phenyl) (4-isopropylpiperazin-1-yl)methanone] |
| 6.1 | CCn1cc(-c2ccnc(Nc3ccc(C(=O)N4CCN(C5CCCCC5)CC4)cc3)n2)c(-c2cccnc2)n1 [Example 120, (4-Cyclohexylpiperazin-1-yl) (4-((4-(1-ethyl-3-(pyridin-3-yl)-1H-pyrazol-4-yl)pyrimidin-2-yl)amino)phenyl) methanone] |
| 19.6 | CC(C)N1CCN(C(=O)c2ccc(Nc3nccc(-c4cn(Cc5ccc(F)cc5)nc4-c4cccnc4)n3)cc2)CC1 [Example 121, (4-((4-(1-(4-Fluorobenzyl)-3-(pyridin-3-yl)-1H-pyrazol-4-yl)pyrimidin-2-yl)amino)phenyl)(4-isopropylpiperazin-1-yl)methanone] |
| 23.6 | CCn1cc(-c2ccnc(Nc3cccc(C(=O)N4CCN(C(C)C)CC4)c3)n2)c(-c2cccnc2)n1 [Example 122, (3-((4-(1-Ethyl-3-(pyridin-3-yl)-1H-pyrazol-4-yl)pyrimidin-2-yl)amino)phenyl)(4-isopropylpiperazin-1-yl)methanone] |
| 12.6 | CC(C)N1CCN(C(=O)c2ccc(Nc3nccc(-c4cn(CCc5ccccc5)nc4-c4cccnc4)n3)cc2)CC1 [Example 123, (4-lsopropylpiperazin-1-yl) (4-((4-(1-phenethyl-3-(pyridin-3-yl)-1H-pyrazol-4-yl)pyrimidin-2-yl)amino)phenyl) methanone] |
| 10 | CCn1cc(-c2ccnc(Nc3ccc4c(c3)CCN(C3COC3)CC4)n2)c(-c2cccnc2)n1 [Example 125, N-(4-(1-Ethyl-3-(pyridin-3-yl)-1H-pyrazol-4-yl)pyrimidin-2-yl)-3-(oxetan-3-yl)-2,3,4,5-tetrahydro-1H-benzo [d] azepin-7-amine] |
| 32 | CCn1cc(-c2ccnc(Nc3cnn(C4CCN(C5COC5)CC4)c3)n2)c(-c2cccnc2)n1 [Example 128, 4-(1-Ethyl-3-(pyridin-3-yl)-1H-pyrazol-4-yl)-N-(1-(1-(oxetan-3-yl)piperidin-4-yl)-1H-pyrazol-4-yl)pyrimidin-2-amine] |
| 12.4 | CCn1cc(-c2ccnc(Nc3ccc(N4CCN(C5CCOCC5)CC4)cc3)n2)c(-c2cccnc2)n1 [Example 130, 4-(1-Ethyl-3-(pyridin-3-yl)-1H-pyrazol-4-yl)-N-(4-(4-(tetrahydro-2H-pyran-4-yl)piperazin-1-yl)phenyl)pyrimidin-2-amine] |
| 16.7 | CC(C)(O)Cn1cc(-c2ccnc(Nc3ccc4c(c3)CCN(C3COC3)C4)n2)c(-c2cccnc2)n1 [Example 131, 2-Methyl-1-(4-(2-((2-(oxetan-3-yl)-1,2,3,4-tetrahydroisoquinolin-6-yl)amino)pyrimidin-4-yl)-3-(pyridin-3-yl)-1H-pyrazol-1-yl)propan-2-ol] |
| 24.9 | CC(C)(O)Cn1cc(-c2ccnc(Nc3ccc(C4CCN(C5COC5)CC4)cc3)n2)c(-c2cccnc2)n1 [Example 132] |
| 18.7 | CCn1cc(-c2ccnc(Nc3ccc(-c4cccnc4)cc3)n2)c(-c2cccnc2)n1 [Example 133, 4-(1-ethyl-3-(pyridin-3-yl)-1H-pyrazol-4-yl)-N-(4-(pyridin-3-yl)phenyl)pyrimidin-2-amine] |
| 21.8 | CCn1cc(-c2ccnc(Nc3ccc(-c4ccncc4)cc3)n2)c(-c2cccnc2)n1 [Example 134, 4-(1-Ethyl-3-(pyridin-3-yl)-1H-pyrazol-4-yl)-N-(4-(pyridin-4-yl)phenyl)pyrimidin-2-amine] |
| 13.3 | FC(F)(F)Cn1cc(-c2ccnc(Nc3ccc(N4CCNCC4)cc3)n2)c(-c2cccnc2)n1 [Example 136, N-(4-(piperazin-1-yl)phenyl)-4-(3-(pyridin-3-yl)-1-(2,2,2-trifluoroethyl)-1H-pyrazol-4-yl)pyrimidin-2-amine] |
| 31.9 | c1ccc(Cn2cc(-c3ccnc(Nc4ccc(N5CCNCC5)cc4)n3)c(-c3cccnc3)n2)nc1 [Example 140, N-(4-(Piperazin-1-yl)phenyl)-4-(1-(pyridin-2-ylmethyl)-3-(pyridin-3-yl)-1H-pyrazol-4-yl)pyrimidin-2-amine] |
| 55.2 | c1cncc(Cn2cc(-c3ccnc(Nc4ccc(N5CCNCC5)cc4)n3)c(-c3cccnc3)n2)c1 [Example 141, N-(4-(Piperazin-1-yl)phenyl)-4-(3-(pyr-3-yl)-1-(pyridin-3-ylmethyl)-1H-pyrazol-4-yl)pyrimidin-2-amine] |
| 16.4 | CCn1cc(-c2ccnc(Nc3ccc(OC4CNC4)cc3)n2)c(-c2cccnc2)n1 [Example 145, N-(4-(Azetidin-3-yloxy)phenyl)-4-(1-ethyl-3-(pyridin-3-yl)-1H-pyrazol-4-yl)pyrimidin-2-amine] |
| 14.1 | CCn1cc(-c2ccnc(Nc3ccc(N4CCC(N)CC4)cc3)n2)c(-c2cccnc2)n1 [Example 147, N-(4-(4-Aminopiperidin-1-yl)phenyl)-4-(1-ethyl-3-(pyridin-3-yl)-1H-pyrazol-4-yl)pyrimidin-2-amine] |
| 6.5 | CCn1cc(-c2ccnc(Nc3cc(F)c(N4CCNCC4)c(F)c3)n2)c(-c2cccnc2)n1 [Example 153, N-(3,5-Difluoro-4-(piperazin-1-yl)phenyl)-4-(1-ethyl-3-(pyridin-3-yl)-1H-pyrazol-4-yl)pyrimidin-2-amine] |
| 7 | CCn1cc(-c2ccnc(Nc3ccc(N4CCNCC4)c(C)c3)n2)c(-c2cccnc2)n1 [Example 154, 4-(1-Ethyl-3-(pyridin-3-yl)-1H-pyrazol-4-yl)-N-(3-methyl-4-(piperazin-1-yl)phenyl)pyrimidin-2-amine] |
| 19.7 | N#Cc1ccccc1Cn1cc(-c2ccnc(Nc3ccc(N4CCNCC4)cc3)n2)c(-c2cccnc2)n1 [Example 157, 2-((4-(2-((4-(Piperazin-1-yl)phenyl)amino)pyrimidin-4-yl)-3-(pyridin-3-yl)-1H-pyrazol-1-yl)methyl)benzonitrile] |
| 18.5 | CCn1cc(-c2ccnc(Nc3cccc(N4CCNCC4)c3)n2)c(-c2cccnc2)n1 [Example 158, 4-(1-Ethyl-3-(pyridin-3-yl)-1H-pyrazol-4-yl)-N-(3-(piperazin-1-yl)phenyl)pyrimidin-2-amine] |

Reference: patent US10954216B2, “BMP-signal-inhibiting compound” (RIKEN, priority 2016, dated 2021)
